Reference: publication PMC9237828, “Chemically Tuning Resveratrol for the Effective Killing of Gram-Positive Pathogens” (Journal of Natural Products, 2022)
Values after ≈ are worked out from the molar mass of the structure shown. Where two headings read alike, the source gives them in different places. Non-standard residues stand in square brackets, D forms with d. Residues, ends and D or L forms follow the SMILES beside them. Orn = NCCC[C@H](N)C(=O)O

Columns and labels:
in vitro = details: human
B. cereus ATCC10987 [1] = assay: microbe, parasite or virus in culture; assay type: cell-based, Bacillus cereus; details: for MIC: Bacillus cereus, ATCC10987, 20 h, read-out: Minimal Inhibition Concentration (MIC) B. cereus ATCC10987
B. cereus ATCC14579 = assay: microbe, parasite or virus in culture; assay type: cell-based, Bacillus cereus; details: for MIC: Bacillus cereus, ATCC14579, 20 h, read-out: Minimal Inhibition Concentration (MIC) B. cereus ATCC14579
E. faecalis LMG08222 = assay: microbe, parasite or virus in culture; assay type: cell-based, Enterococcus faecalis; details: for MIC: Enterococcus faecalis, LMG08222, 20 h, read-out: Minimal Inhibition Concentration (MIC) E. faecalis LMG08222
E. faecalis LMG16216 = assay: microbe, parasite or virus in culture; assay type: cell-based, Enterococcus faecalis; details: for MIC: Enterococcus faecalis, LMG16216, 20 h, read-out: Minimal Inhibition Concentration (MIC) E. faecalis LMG16216
E. faecalis V583 = assay: microbe, parasite or virus in culture; assay type: cell-based, Enterococcus faecalis; details: for MIC: Enterococcus faecalis, V583, 20 h, read-out: Minimal Inhibition Concentration (MIC) E. faecalis V583
E. faecium LMG11423 = assay: microbe, parasite or virus in culture; assay type: cell-based; details: for MIC: Enterococcus faecium, LMG11423, 20 h, read-out: Minimal Inhibition Concentration (MIC) E. faecium LMG11423
E. faecium LMG16003 = assay: microbe, parasite or virus in culture; assay type: cell-based; details: for MIC: Enterococcus faecium, LMG16003, 20 h, read-out: Minimal Inhibition Concentration (MIC) E. faecium LMG16003
S.aureus LMG8224 = assay: microbe, parasite or virus in culture; assay type: cell-based, Staphylococcus aureus; details: for MIC: Staphylococcus aureus, LMG8224, 20 h, read-out: Minimal Inhibition Concentration (MIC) S.aureus LMG8224
S.aureus LMG10147 = assay: microbe, parasite or virus in culture; assay type: cell-based, Staphylococcus aureus; details: for MIC: Staphylococcus aureus, LMG10147, 20 h, read-out: Minimal Inhibition Concentration (MIC) S.aureus LMG10147
S.aureus LMG15975 = assay: microbe, parasite or virus in culture; assay type: cell-based, Staphylococcus aureus; details: for MIC: Staphylococcus aureus, LMG15975, 20 h, read-out: Minimal Inhibition Concentration (MIC) S.aureus LMG15975
C. beijerinckii B504 = assay: MIC test, anaerobes; assay type: cell-based; details: for MIC: Clostridium beijerinckii, B504, 24 h, read-out: Minimal Inhibition Concentration (MIC) C. beijerinckii B504
Procedure: (§1) The resveratrol derivatives were serially diluted in cMHB (BD Difco) in 96-well microplates. Plates were then inoculated with the indicator bacteria at a final concentration of 5 × 10^5 CFU/mL and incubated at 37 °C for 20 h. In the case of the anaerobic bacteria (Clostridium and Clostridioides), the test was performed following the recommendation of CLSI for anaerobes[77] but using RCM medium instead of cMHB. The cultures were cultivated inside an anaerobic chamber at 37 °C for 24 h. All the tests were performed in triplicate.

C. ihumii AP5 = assay: MIC test, anaerobes; assay type: cell-based; details: 24 h, read-out: Minimal Inhibition Concentration (MIC) C. ihumii AP5
Procedure: as §1

C. botulinum CECT551 = assay: microbe, parasite or virus in culture; assay type: cell-based; details: for MIC: Clostridium botulinum, CECT551, 24 h, read-out: Minimal Inhibition Concentration (MIC) C. botulinum CECT551
C. difficile CECT531 = assay: microbe, parasite or virus in culture; assay type: cell-based, Clostridioides difficile; details: for MIC: Clostridioides difficile, CECT531, 24 h, read-out: Minimal Inhibition Concentration (MIC) C. difficile CECT531
C. perfringens CECT376 = assay: microbe, parasite or virus in culture; assay type: cell-based; details: for MIC: Clostridium perfringens, CECT376, 24 h, read-out: Minimal Inhibition Concentration (MIC) C. perfringens CECT376
C. tetani CECT4629 = assay: microbe, parasite or virus in culture; assay type: cell-based; details: for MIC: Clostridium tetani, CECT4629, 24 h, read-out: Minimal Inhibition Concentration (MIC) C. tetani CECT4629
[2] = test system: panel of aerobic and anaerobic Gram-positive bacteria; assay: organism not typed; assay type: cell-based
B. cereus ATCC10987 [3] = assay: Membrane potential assay DiSC3(5); details: 2×, 1×, and 0.5× the MIC
[4] = test system: B. cereus ATCC 10987, E. faecalis V583, E. faecium LMG 16003, and S. aureus LMG 8224; assay type: cell-based; details: 2-fold the MIC, 24 h, cMHB
B. cereus ATCC10987 [5] = assay: Effect of the compounds on actively growing bacteria (lysis, OD600); assay type: cell-based, Bacillus cereus; details: 2×, 1×, and 0.5× the MIC added at mid exponential phase
[6] = test system: B. cereus ATCC10987 respiratory chain; assay: Activity of the respiratory chain (resazurin reduction); assay type: cell-based, Bacillus cereus; details: dose-related, 125 min
Procedure: The effect of the resveratrol derivatives on the B. cereus ATCC10987 respiratory chain was measured by the reduction of resazurin to the fluorescent resorufin. The bacteria were cultured in LB medium at 37 °C to an OD600 of 1. Then, the cells were washed three times in cMHB and resuspended in this medium at a final OD600 of 0.2. Resazurin at 100 μg/mL was added to the cells that were distributed in a 96-well plate. […] No treated cells and just MHB medium with resazurin were used as negative controls. All the tests were performed in triplicate.

B. cereus ATCC10987 [7] = assay: Intracellular ATP level quantification (BacTiter-Glo); details: 32 μM of the compounds (100 μM for CCCP), 30, 60, and 120 min, 37 °C
E. coli LMG8224 = assay: Outer membrane permeabilization test (MIC with or without L-11 peptide); details: for MIC: Escherichia coli, LMG8224, read-out: MIC (μM) L-11 + 0 μM; for MIC (μM) L-11 + 4 μM: presence of 4 μM L-11 outer-membrane-perturbing peptide
[8] = Table 1, 128 to 2 μM, RCM medium, anaerobic, 24 h

Molecule | IC50 (in vitro) [µM] | MIC (B. cereus ATCC10987 [1]) [µM] | MIC (B. cereus ATCC14579) [µM] | MIC (E. faecalis LMG08222) [µM] | MIC (E. faecalis LMG16216) [µM] | MIC (E. faecalis V583) [µM] | MIC (E. faecium LMG11423) [µM] | MIC (E. faecium LMG16003) [µM] | MIC (S.aureus LMG8224) [µM] | MIC (S.aureus LMG10147) [µM] | MIC (S.aureus LMG15975) [µM] | MIC (C. beijerinckii B504) [µM] | MIC (C. ihumii AP5) [µM] | MIC (C. botulinum CECT551) [µM] | MIC (C. difficile CECT531) [µM] | MIC (C. perfringens CECT376) [µM] | MIC (C. tetani CECT4629) [µM] | other results
CC[Si](CC)(CC)Oc1ccc(/C=C/c2cc(O)cc(O)c2)cc1 [compound 31] | 32.1 ± 0.9 |  |  |  |  |  |  |  |  |  |  |  |  |  |  |  |  | 
3-tert-Butyldimethylsilyl resveratrol [compound 16] |  |  |  |  |  |  |  |  |  |  |  |  |  |  |  |  |  | Minimal Inhibition Concentration (MIC) B. cereus ATCC10987 (B. cereus ATCC10987 [1]): 16 ± 0 µM; Minimal Inhibition Concentration (MIC) B. cereus ATCC14579 (B. cereus ATCC14579): 16 ± 0 µM; Minimal Inhibition Concentration (MIC) E. faecalis LMG08222 (E. faecalis LMG08222): 8 ± 0 µM; Minimal Inhibition Concentration (MIC) E. faecalis LMG16216 (E. faecalis LMG16216): 16 ± 0 µM; Minimal Inhibition Concentration (MIC) E. faecalis V583 (E. faecalis V583): 16 ± 0 µM; Minimal Inhibition Concentration (MIC) E. faecium LMG11423 (E. faecium LMG11423): 16 ± 0 µM; Minimal Inhibition Concentration (MIC) E. faecium LMG16003 (E. faecium LMG16003): 16 ± 0 µM; Minimal Inhibition Concentration (MIC) S.aureus LMG8224 (S.aureus LMG8224): 16 ± 0 µM; Minimal Inhibition Concentration (MIC) S.aureus LMG10147 (S.aureus LMG10147): 16 ± 0 µM; Minimal Inhibition Concentration (MIC) S.aureus LMG15975 (S.aureus LMG15975): 16 ± 0 µM; Minimal Inhibition Concentration (MIC) C. beijerinckii B504 (C. beijerinckii B504; [8]): 26.6 ± 5.3 µM; MIC (C. ihumii AP5; Table 1, 128 to 2 μM, RCM medium, anaerobic): 32 µM; Minimal Inhibition Concentration (MIC) C. botulinum CECT551 (C. botulinum CECT551; [8]): 16 µM; Minimal Inhibition Concentration (MIC) C. difficile CECT531 (C. difficile CECT531): 26.6 ± 5.3 µM; Minimal Inhibition Concentration (MIC) C. perfringens CECT376 (C. perfringens CECT376): 32 µM; Minimal Inhibition Concentration (MIC) C. tetani CECT4629 (C. tetani CECT4629; [8]): 6.6 ± 1.3 µM; IC50 (MRC5 cells): 2.7 ± 0.3 µM
CCCCOc1ccc(/C=C/c2cc(OS(=O)(=O)O)cc(OS(=O)(=O)O)c2)cc1 [compound 14, 4′-butyl-3,5-disulfate resveratrol] |  | 128 (≈ 56.9 µg/mL) | 128 (≈ 56.9 µg/mL) | 32 (≈ 14.2 µg/mL) | 16 (≈ 7.11 µg/mL) | 64 (≈ 28.4 µg/mL) | 32 (≈ 14.2 µg/mL) | 64 (≈ 28.4 µg/mL) | 32 (≈ 14.2 µg/mL) | 32 (≈ 14.2 µg/mL) | 32 (≈ 14.2 µg/mL) | 16 (≈ 7.11 µg/mL) | 32 (≈ 14.2 µg/mL) | 21.3 ± 5.3 (≈ 9.47 µg/mL) | 32 (≈ 14.2 µg/mL) | 32 (≈ 14.2 µg/mL) | 16 (≈ 7.11 µg/mL) | antibacterial activity against the Gram-positive panel [2]: active against all Gram-positive bacterial strains examined
CC(C)C[C@@H]1NC(=O)[C@H](CCCN)NC(=O)[C@H](C(C)C)NC(=O)[C@@H]2CCCN2C(=O)[C@@H](Cc2ccccc2)NC(=O)[C@H](CC(C)C)NC(=O)[C@H](CCCN)NC(=O)[C@H](C(C)C)NC(=O)[C@@H]2CCCN2C(=O)[C@@H](Cc2ccccc2)NC1=O [gramicidin S, Gramicidin S] (cyclo(V[Orn]L[dF]PV[Orn]L[dF]P)) |  |  |  |  |  |  |  |  |  |  |  |  |  |  |  |  |  | membrane potential change (DiSC3(5)) (B. cereus ATCC10987 [3]): induced a strong membrane depolarization
3-triethylsilyl resveratrol [compound 20] |  |  |  |  |  |  |  |  |  |  |  |  |  |  |  |  |  | IC50 (MRC5 cells): 21.3 ± 5.9 µM
CC(C)[Si](Oc1cc(O)cc(/C=C/c2ccc(O)cc2)c1)(C(C)C)C(C)C [compound 32] | 1.8 ± 0.1 | 8 (≈ 3.08 µg/mL) | 8 (≈ 3.08 µg/mL) | 4 (≈ 1.54 µg/mL) | 4 (≈ 1.54 µg/mL) | 8 (≈ 3.08 µg/mL) | 4 (≈ 1.54 µg/mL) | 4 (≈ 1.54 µg/mL) | 8 (≈ 3.08 µg/mL) | 8 (≈ 3.08 µg/mL) | 8 (≈ 3.08 µg/mL) | 10.7 ± 2.6 (≈ 4.12 µg/mL) | 16 (≈ 6.15 µg/mL) | 8 (≈ 3.08 µg/mL) | 16 (≈ 6.15 µg/mL) | 16 (≈ 6.15 µg/mL) | 5.3 ± 1.3 (≈ 2.04 µg/mL) | bactericidal/bacteriostatic effect [4]: bactericidal; lysis of actively growing cells (B. cereus ATCC10987 [5]): most effective derivatives lysing the cells; effect on the respiratory chain (reduction of resazurin) [6]: comparable to or even higher than that of the proton ionophore decoupler of the electron transport chain CCCP; intracellular ATP levels (B. cereus ATCC10987 [7]): reduced dramatically the ATP levels; MIC (E. coli LMG8224): > 128 µM; MIC (μM) L-11 + 4 μM (E. coli LMG8224): 8 ± 0 µM
N#CC(C#N)=NNc1cccc(Cl)c1 [CCCP, carbonyl cyanide m-chlorophenyl hydrazone] |  |  |  |  |  |  |  |  |  |  |  |  |  |  |  |  |  | intracellular ATP levels (B. cereus ATCC10987 [7]): a time reduction of these levels was observed
CC(C)[Si](Oc1ccc(/C=C/c2cc(O)cc(O)c2)cc1)(C(C)C)C(C)C [compound 33] | 2.8 ± 0.2 | 32 (≈ 12.3 µg/mL) | 26.6 ± 5.3 (≈ 10.2 µg/mL) | 8 (≈ 3.08 µg/mL) | 8 (≈ 3.08 µg/mL) | 21.3 ± 5.3 (≈ 8.19 µg/mL) | 16 (≈ 6.15 µg/mL) | 5.3 ± 1.3 (≈ 2.04 µg/mL) | 128 (≈ 49.2 µg/mL) | 128 (≈ 49.2 µg/mL) | 128 (≈ 49.2 µg/mL) | 21.3 ± 5.3 (≈ 8.19 µg/mL) | 13.3 ± 2.6 (≈ 5.12 µg/mL) | 10.7 ± 2.6 (≈ 4.12 µg/mL) | 16 (≈ 6.15 µg/mL) | 26.6 ± 5.3 (≈ 10.2 µg/mL) | 6.7 ± 1.3 (≈ 2.58 µg/mL) | bactericidal/bacteriostatic effect [4]: bactericidal; lysis of actively growing cells (B. cereus ATCC10987 [5]): most effective derivatives lysing the cells; MIC (E. coli LMG8224): > 128 µM; MIC (μM) L-11 + 4 μM (E. coli LMG8224): 21.3 ± 5.3 µM
